Laboratory results from ChEMBL document CHEMBL4819046, “One pot synthesis, in silico study and evaluation of some novel flavonoids as potent topoisomerase II inhibitors” (Bioorg Med Chem Lett, 2021).
Calls of active or inactive are those of the source. No cut-off for these calls is given here.

Experiments:
[1] = system: MCF-10A; assay: Cytotoxicity against human MCF-10A cells at 100 uM after 72 hrs by MTT assay; assay type: cell-based
[2] = system: MCF7; assay: Cytotoxicity against human MCF7 cells assessed as inhibition of cell proliferation after 72 hrs by MTT assay; assay type: functional, cell-based; conditions: MCF7, 72 h
[3] = system: A549; assay: Cytotoxicity against human A549 cells assessed as inhibition of cell proliferation after 72 hrs by MTT assay; assay type: functional, cell-based; conditions: A549, 72 h
[4] = system: HepG2; assay: Cytotoxicity against human HepG2 cells assessed as inhibition of cell proliferation after 72 hrs by MTT assay; assay type: functional, cell-based; conditions: HepG2, 72 h
[5] = system: MCF-10A; assay: Cytotoxicity against human MCF-10A cells at <= 25 uM after 72 hrs by MTT assay; assay type: cell-based
[6] = system: MCF-10A; assay: Cytotoxicity against human MCF-10A cells assessed as reduction in cell viability after 72 hrs by MTT assay; assay type: cell-based
[7] = biological target: T1, DNA topoisomerase 2-alpha (Homo sapiens, UniProt P11388); assay: Inhibition of human topoisomerase-2 alpha in human A498 cells assessed as decrease in relaxation of supercoiled DNA at 10 uM; assay type: cell-based
[8] = system: MCF-10A; assay: Cytotoxicity against human MCF-10A cells at 50 uM after 72 hrs by MTT assay; assay type: cell-based
[9] = biological target: T1, DNA topoisomerase 2-alpha; assay: Inhibition of human topoisomerase-2alpha assessed as reduction in pBR322 DNA relaxation by gel electrophoresis method

T1 sequence (P11388 whole entry): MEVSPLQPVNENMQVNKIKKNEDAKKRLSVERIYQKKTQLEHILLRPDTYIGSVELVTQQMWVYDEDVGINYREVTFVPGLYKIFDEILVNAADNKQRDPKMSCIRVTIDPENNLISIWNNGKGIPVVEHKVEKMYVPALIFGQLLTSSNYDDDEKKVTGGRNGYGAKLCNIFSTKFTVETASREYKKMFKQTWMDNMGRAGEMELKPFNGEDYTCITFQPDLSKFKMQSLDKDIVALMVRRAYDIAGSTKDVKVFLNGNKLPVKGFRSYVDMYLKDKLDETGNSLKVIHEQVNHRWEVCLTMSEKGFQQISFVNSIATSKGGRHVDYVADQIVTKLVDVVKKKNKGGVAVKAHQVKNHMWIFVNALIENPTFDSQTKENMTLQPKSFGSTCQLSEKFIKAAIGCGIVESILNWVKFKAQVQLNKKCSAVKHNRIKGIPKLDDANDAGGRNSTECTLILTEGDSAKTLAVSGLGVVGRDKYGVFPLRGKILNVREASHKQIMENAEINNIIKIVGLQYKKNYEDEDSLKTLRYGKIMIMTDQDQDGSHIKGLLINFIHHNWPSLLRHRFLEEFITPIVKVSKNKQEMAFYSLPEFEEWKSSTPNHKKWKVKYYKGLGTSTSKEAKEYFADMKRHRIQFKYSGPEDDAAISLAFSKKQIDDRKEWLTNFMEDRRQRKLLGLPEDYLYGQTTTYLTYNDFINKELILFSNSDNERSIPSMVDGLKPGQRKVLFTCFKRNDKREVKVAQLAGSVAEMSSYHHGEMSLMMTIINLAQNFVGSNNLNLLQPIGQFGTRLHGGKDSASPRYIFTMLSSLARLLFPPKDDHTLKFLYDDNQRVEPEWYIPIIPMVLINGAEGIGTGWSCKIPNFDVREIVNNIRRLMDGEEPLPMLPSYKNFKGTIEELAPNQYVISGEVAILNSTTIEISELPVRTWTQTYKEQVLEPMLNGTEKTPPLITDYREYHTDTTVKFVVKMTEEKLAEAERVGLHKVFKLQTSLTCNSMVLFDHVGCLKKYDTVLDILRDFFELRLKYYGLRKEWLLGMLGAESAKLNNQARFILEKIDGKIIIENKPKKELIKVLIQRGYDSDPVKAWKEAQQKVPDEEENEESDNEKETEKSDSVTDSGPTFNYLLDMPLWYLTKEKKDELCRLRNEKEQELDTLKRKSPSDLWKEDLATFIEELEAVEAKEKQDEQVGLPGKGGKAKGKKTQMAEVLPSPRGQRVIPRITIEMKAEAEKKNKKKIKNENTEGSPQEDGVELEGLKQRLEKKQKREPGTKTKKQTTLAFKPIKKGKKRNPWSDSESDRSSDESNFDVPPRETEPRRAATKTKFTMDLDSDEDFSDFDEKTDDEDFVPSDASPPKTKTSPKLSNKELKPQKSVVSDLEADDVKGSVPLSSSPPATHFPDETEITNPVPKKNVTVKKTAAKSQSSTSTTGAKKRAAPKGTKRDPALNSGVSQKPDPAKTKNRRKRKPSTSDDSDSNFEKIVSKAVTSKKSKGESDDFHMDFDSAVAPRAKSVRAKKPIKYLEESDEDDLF

SMILES	Activity [1]	IC50 [2]	IC50 [3]	IC50 [4]	Activity [5]	IC50 [6]	IC50 [7]	Activity [8]	inhibition [9]
COc1cccc(-n2c(-c3coc4cc(C)c(Cl)cc4c3=O)nc(-c3ccccc3)c2-c2ccccc2)c1	Toxic	25 µM	6.25 µM	6.25 µM	Non-Toxic				
N#CC1=C(N)Oc2c(c(=O)oc3ccccc23)C1C1CC1 (configuration not stated)	Toxic	25 µM	25 µM	12.5 µM	Non-Toxic				
COc1ccccc1-n1c(-c2coc3cc(C)c(Cl)cc3c2=O)nc(-c2ccccc2)c1-c1ccccc1	Toxic	25 µM	12.5 µM	12.5 µM	Non-Toxic				
Cc1cc2occ(-c3nc(-c4ccccc4)c(-c4ccccc4)n3-c3ccc([N+](=O)[O-])cc3)c(=O)c2cc1Cl	Toxic	6.25 µM	3.12 µM	25 µM	Non-Toxic	> 100 µM	48.4 µM		
N#CC1=C(N)Oc2c(c(=O)oc3ccccc23)C1c1cc2ccccc2s1 (configuration not stated)		1.56 µM	1.56 µM	6.25 µM	Non-Toxic	98 µM	10.3 µM	Toxic	Active
N#CC1=C(N)Oc2c(c(=O)oc3ccccc23)C1c1cc(=O)c2ccccc2o1 (configuration not stated)		12.5 µM	1.56 µM	6.25 µM	Non-Toxic	90 µM	26.4 µM	Toxic	
N#CC1=C(N)Oc2c(c(=O)oc3ccccc23)C1c1cc2ccccc2c2ccccc12 (configuration not stated)	Toxic	25 µM	25 µM	25 µM	Non-Toxic				
Cc1cc2occ(-c3nc(-c4ccccc4)c(-c4ccccc4)n3-c3ccc(Br)cc3)c(=O)c2cc1Cl		1.56 µM	25 µM	6.25 µM	Non-Toxic	> 100 µM	17.1 µM	Toxic	
Cc1cc2occ(-c3nc(-c4ccccc4)c(-c4ccccc4)n3-c3ccc(Cl)cc3)c(=O)c2cc1Cl		12.5 µM	12.5 µM	1.56 µM	Non-Toxic	92 µM		Toxic	
Cc1ccc(-n2c(-c3coc4cc(C)c(Cl)cc4c3=O)nc(-c3ccccc3)c2-c2ccccc2)c(C)c1	Toxic	6.25 µM	6.25 µM	3.12 µM	Non-Toxic				
Cc1cc2occ(-c3nc(-c4ccccc4)c(-c4ccccc4)n3-c3ccccc3Cl)c(=O)c2cc1Cl	Toxic	3.12 µM	12.5 µM	6.25 µM	Non-Toxic				
Cc1cc2occ(C3C(C#N)=C(N)Oc4c3c(=O)oc3ccccc43)c(=O)c2cc1Cl (configuration not stated)	Toxic	6.25 µM	6.25 µM	12.5 µM	Non-Toxic				
Cc1cc2occ(-c3nc(-c4ccccc4)c(-c4ccccc4)n3-c3cccc([N+](=O)[O-])c3)c(=O)c2cc1Cl		1.56 µM	6.25 µM	25 µM	Non-Toxic			Toxic	
N#CC1=C(N)Oc2c(c(=O)oc3ccccc23)C1c1cnc2ccccc2c1 (configuration not stated)		1.56 µM	6.25 µM	6.25 µM	Non-Toxic	94 µM	16.7 µM	Toxic	
Cc1cc2occ(-c3nc(-c4ccccc4)c(-c4ccccc4)n3-c3cccc(Cl)c3)c(=O)c2cc1Cl	Toxic	6.25 µM	25 µM	25 µM	Non-Toxic				
N#CC1=C(N)Oc2c(c(=O)oc3ccccc23)C1c1c2ccccc2cc2ccccc12 (configuration not stated)	Toxic	12.5 µM	25 µM	25 µM	Non-Toxic				
COc1ccc(C2C(C#N)=C(N)Oc3c2c(=O)oc2ccccc32)c(OC)c1 (configuration not stated)	Toxic	25 µM	6.25 µM	3.12 µM	Non-Toxic				
Cc1cc2occ(-c3nc(-c4ccccc4)c(-c4ccccc4)n3-c3ccc(Cl)c(Cl)c3)c(=O)c2cc1Cl		1.56 µM	6.25 µM	12.5 µM	Non-Toxic	98 µM	39.9 µM	Toxic	
Cc1cccc(-n2c(-c3coc4cc(C)c(Cl)cc4c3=O)nc(-c3ccccc3)c2-c2ccccc2)c1	Toxic	12.5 µM	12.5 µM	6.25 µM	Non-Toxic				
N#CC1=C(N)Oc2c(c(=O)oc3ccccc23)C1c1c[nH]c2ccccc12 (configuration not stated)		1.56 µM	1.56 µM	12.5 µM	Non-Toxic	94 µM	12.4 µM	Toxic	Active
Cc1ccc(-n2c(-c3coc4cc(C)c(Cl)cc4c3=O)nc(-c3ccccc3)c2-c2ccccc2)cc1	Toxic	12.5 µM	12.5 µM	6.25 µM	Non-Toxic				
